Laboratory results taken from patent US20240140953A1, “INHIBITORS OF MENIN-MLL INTERACTION” (BIOMEA FUSION, INC., priority 2018, published 2024).
pIC50: −log10 of the molar value. Where two headings read alike, the source gives them in different places.

Experiments:
MOLM-13 (MLL-AF9) = assay: Proliferation study, CellTiterGlo, 4 days (Example 102), MOLM-13; format: cell-based, human; conditions: MOLM-13, 4 days treatment; for pIC50 / IC50: Homo sapiens, 96 h, CellTiterGlo; for pIC50: read-out: MOLM-13 (MLL-AF9) IC50; for IC50: read-out: MOLM-13 (MLL-AF9) pIC50 (converted); for MOLM-13 (MLL-AF9) % max: maximal inhibition
Text: The objective of the study was to evaluate the ability of representative compounds of the present invention, inhibitors of Menin/MLL interaction to inhibit cell proliferation. The proliferation inhibitory effect was investigated in two human MLL-leukemia cells selected on the bases of MLL fusion protein and listed in Table 102. HL-60 cell line was used as negative control.
ATP is present in all metabolically active cells and is considered as a marker for cell viability and proliferation. The metabolic cell activity was determined using the CellTiter-Glo kit from Promega, an ATP monitoring system based on the production of luminescence by the reaction of ATP with added UltraGlo® recombinant luciferase (Kawano et al., 2016), according to the supplier's experimental recommendations.
The described assay evaluates the ability of 4 representative compounds to inhibit the cell proliferation in the human MLL-leukemia cells plus a negative control cell line.
The assay provides potency values (IC50) for each test compound at a single time point Day 4 (T4).
Seven concentrations of the compounds (2.00E-05-6.67E-06-2.22E-06-7.41E-07-2.47E-07-8.23E-08-2.74E-08M), were assessed in duplicate in an individual test occasion in all the cell lines. MI-503 (Borkin et al., 2015) was used as reference compound and was tested at the same concentrations as the NCEs. 100% of proliferation is represented by the untreated cells (0.2% DMSO). The cell growth was monitored up to 4 days in culture.
MV4-11, MOLM-13 and HL-60 cells (see Table 2) were maintained in RPMI-1640 medium (Invitrogen, Cat. n. 618700, Batch n. 1965930) supplemented with 10% of Heat Inactivated FBS (Invitrogen, Cat n. 10500, Batch n. 08Q8078K) and 1% Pen-Strep (Invitrogen, Cat. N. 15140, Batch n. 1910859) and cultured at 37° C. in a humidified incubator with 5% CO2. All the cell lines grow in suspension and the cell density was maintained in a range of 2×10^5-1×10^6 viable cells/ml. Cells were pelleted at 130 g×5 min and conditioned medium was used to dilute the cell suspension.
Test items were dissolved in glass vials at 10 mM in DMSO with purity ≥99.9% (Sigma, D8418, batch n. SHBH4245V) and stored at −20° C. in 1.5 mL Eppendorf tubes.
Serial dilutions 1 to 3 in DMSO 100% were prepared starting from a 10 mM stock solutions to generate 7 points concentration response curve (CRC).
For each plate to test, one 0.4 μL copy plate and four 0.3 μL copy plates were then stamped into 96-well plates not treated for cell adhesion (Sarstedt—cat.no. 82.1581.001) by acoustic liquid Handling, Echo, at a concentration which was 500 fold the final assay concentration. Stamped plates were stored at −20° C. The final concentrations for the reference compound, MI-503, and the test items were: 2.00E-05, 6.67E-06, 2.22E-06, 7.41E-07, 2.47E-07, 8.23E-08 and 2.74E-08 M.
Cells were plated in 96-well flat bottom microtiter plates at cell density of 15,000 cells/ml for HL-60, 1000 cells/ml for MOLM-13 and 10,000 cell/ml for MV4-11. Cells were treated with 0.2% DMSO (Sigma, D8418, batch n. SHBH4245V) or serial dilutions of compounds (0.027 μM-20 μM) in DMSO (0.2% final concentration). Cells were incubated in a 5% CO2 incubator at 37° C. for 4 days. A CellTiterGlo viability assay (Promega) was employed. Luminescence was read by using VictorV (Perkin Elmer) multilabel plate reader using the standard protocol for luminescence in 96 well plate. The experiment was performed in duplicate.
Data were expressed as % of inhibition compared to the 0.2% DMSO negative control, and was calculated as follows: […]
CRCs were analysed by GraphPad and IC50 values were calculated by non-linear regression using 4 parameter-logistic equation. IC50 (μM) values were reported in the final data table. The curve fittings were performed leaving free all the parameters. Any constrain were reported in the results table.

MOLM-13 = assay: Long term proliferation assay (Table 3A), MOLM-13; format: cell-based; conditions: Homo sapiens
Method: Example 5b: IC50 determination of compounds of invention in various cell lines (Long Term Proliferation Assay)
The following 5 cell lines are used or can be used for the long term proliferation assay.
Compounds of invention are tested in the 5 suspension lines by 14-day long-term proliferation assay.
The compound is tested in 10-pt dose titration (client will determine the starting concentration and the dilution scheme) and the final DMSO concentration is kept at 0.2%.
Vehicle and media control are also included. All treatments are done in triplicate.
3 plates are used for each cell line and 15 plates are used for the 5 cell lines.
• 1) On Day 0, in a flat bottom 96-well plate, add 100 μL of cells per well at the densities optimized. • 2) Prepare compounds in DMSO at 500× final concentration. Dilute the compounds with DMSO at the dilution. • 3) Dilute the compounds in media at 3×final concentration. Add 50 μL of compound or DMSO at 3× final concentration to each well. Final volume in each well is 150 μL, and final concentration of DMSO is 0.2%. Also include 3 untreated control wells, by adding 50 μL of media alone. 4) Incubate plates for 96 hours. • 5) Count the cells using the Acumen, with capabilities for 96-well plates. Pipette cells up and down to mix in each well, and add desired volume of cells to a new flat bottom poly-D-lysine 96-well plate. Add Calcein AM at 1 μM final concentration. Let cells sit at RT for 10 mins followed by a quick spin to get cells settled on the bottom of the wells. Incubate the plate for additional 40 mins in the incubator. Take out the plate and read by Acumen. Calculate the cell numbers taken into account the dilution factors. • 6) Split the master plate. To do this take the total viable cell count calculated using step 5). Take the average of the replicates for each dose in order to be used in splitting the cells. • 7) Use a 96 well V-bottom plate to spin down the cells to remove old media and compound to split the cells. Based on the split ratio place the proper amount of media and cells into the V-bottom plate, and spin the plate at 1100 rpm for 5 minutes. • 8) Following the spin remove the media, careful not to disturb the cellpellet. • 9) Re-suspend pellet in 100 μL fresh media, and add to a new 96-well flat bottom plate. • 10) Add fresh compound, in the same manner as Step 3). • 11) Incubate plates for 72 hours. Repeat steps 5)-10) on Day 7. • 12) Incubate plates for 96 hours. Repeat Step 5)-10) on Day 11. • 13) Incubate 72 hours and repeat step 5) to take a final count. • 14) Data Analysis
To calculate growth for days 4, 7, 11, and 14: • Calculate the split factor for day 4 to 7, day 7 to 11, and day 11-14.

[1] = 96 h, MOLM-13, Day 4, read-out: MOLM-13 Day 4 IC50

Row | pIC50 (MOLM-13 (MLL-AF9)) | IC50 (MOLM-13 (MLL-AF9)) | pIC50 (MOLM-13; [1]) | pIC50 (MOLM-13; 264 h, MOLM-13, Day 11, read-out: MOLM-13 Day 11 IC50) | SMILES | MOLM-13 (MLL-AF9) % max (MOLM-13 (MLL-AF9)) | inhibition of cell viability (in words) (MOLM-13 (MLL-AF9); up to 20 μM)
1 | 6.49 | 324 nM | 6.49 | 6.81 | O=C(Nc1ccc(-c2cc3c(N4CCOCC4)ncnc3[nH]2)cc1)Nc1cc(-c2cccnc2)n[nH]1 [Compound 9, 1-{4-[4-(morpholin-4-yl)-7H-pyrrolo[2,3-d]pyrimidin-6-yl]phenyl}-3-[3-(pyridin-3-yl)-1H-pyrazol-5-yl]urea] | 94% | 
2 | 6.59 | 257 nM | 6.59 |  | Cn1nc(-c2cccnc2)cc1CC(=O)Nc1ccc(-c2cc3c(N4CCOCC4)ncnc3[nH]2)cc1 [Compound 11, 2-[1-methyl-3-(pyridin-3-yl)-1H-pyrazol-5-yl]-N-{4-[4-(morpholin-4-yl)-7H-pyrrolo[2,3-d]pyrimidin-6-yl]phenyl}acetamide] | 95% | 
3 | ~6.15 | ~708 nM | 6.15 |  | O=C(Cc1cc(-c2cccnc2)n[nH]1)Nc1ccc(-c2nc3c(N4CCOCC4)ncnc3[nH]2)cc1 [Compound 12, N-{4-[6-(morpholin-4-yl)-9H-purin-8-yl]phenyl}-2-[3-(pyridin-3-yl)-1H-pyrazol-5-yl]acetamide] |  | slightly active
